Test results from patent US8258159B2, “Inhibitors of the α2β1/GPIa-IIa integrin” (The Trustees Of The University Of Pennsylvania, priority 2005, dated 2012).
*1 amine or outer side, *2 acyl side, *3 side chain or, on linkers, in order; H or OH if unused. Where a SMILES comes first, the peptide text is derived from it. Side-chain parts run from the residue outwards. [ ]: non-standard residue; d: D form. The star is where a group is joined. Cbz = O=C(OCc1ccccc1)*; Dap = NC[C@H](N)C(=O)O; CO = O=C([*:1])[*:2]; NHBn = c1ccc(CN*)cc1; Bz = O=C(c1ccccc1)*

target: T1, α2β1 integrin (Homo sapiens, UniProt P05556+P17301); experiment: Platelet adhesion assay (human platelet adhesion to type I collagen); type: cell-based; settings: human platelet adhesion to type I (soluble, monomeric) collagen, static conditions; single donor; read-out: IC50
T1 construct: endogenous in cells; host or cells: gel-filtered human platelets of a single donor
Procedure: The inhibitory strength of the compounds of the present disclosure was analyzed as against platelet adhesion to type I collagen. Ninety-six well flat bottom microtiter plates (Immulon 2, Dynatech Laboratories, Chantilly, Va.) were coated with collagen, purified human fibrinogen, or bovine serum albumin, each dissolved in 50 mM NaHCO3 buffer, pH 8.0, containing 150 mM NaCl as previously described. See Bennett J S, Chan C, Vilaire G, Mousa S A, DeGrado W F. Agonist-Activated αvβ3 on Platelets and Lymphocytes Binds to the Matrix Protein Osteopontin. J Biol Chem. 272, 8137-814) (1997). Unoccupied protein binding sites on the wells were blocked with 5 mg/ml bovine serum albumin dissolved in the same buffer. Human platelets were isolated from blood anticoagulated with 0.1 volume 3.8% sodium citrate by gel-filtration using a 4 mM HEPES buffer, pH 7.4, containing 135 mM NaCl, 2.7 mM KCl, 5.6 mM glucose, 3.3 mM NaH2PO4, 0.35 mg/ml bovine serum albumin and various concentrations of CaCl2 or MgCl2 according to the experiment. One hundred μl aliquots of the gel-filtered platelet suspension containing 1-2×10^8 platelets were added to the protein-coated wells in the absence or presence of a platelet agonist. Following an incubation for 30 min at 37° C. without agitation, the plates were washed 4 times with the Tris-buffered NaCl, containing 2 mM MgCl2, pH 7.4, and the number of adherent platelets measured using the colorimetric assay reported by Bellavite P, Andrioli G, Guzzo P, et al. A colorimetric method for the measurement of platelet adhesion in microtiter plates. Anal Biochem. 216, 444-450 (1994). Briefly, 150 μl of a 0.1 M citrate buffer, pH 5.4, containing 5 mM p-nitrophenyl phosphate and 0.1% Triton X-100 was added to the wells after washing. After an incubation for 60 min at room temperature in the absence of ambient light, color was developed by the addition of 100 μl of 2N NaOH and, using EL800 Universal Microplate Reader (Bio-Tek Instruments, Inc., Winooski, Vt.), read in microtiter plate reader at 405 nm.
The potencies of the compounds of the present disclosure were determined by testing the ability of a range of concentrations of each compound to inhibit human platelet adhesion to soluble collagen under static conditions. Owing to the fact that soluble collagen is a specific ligand for α2β1 integrin, this is an accepted method of assessing α2β1 inhibition on platelets.
IC50 values were determined by using the platelets of a single donor. In cases where multiple assays were performed, the reported results reflect the average IC50 value derived from the separate assays.

T1 sequence (P17301 30-1181): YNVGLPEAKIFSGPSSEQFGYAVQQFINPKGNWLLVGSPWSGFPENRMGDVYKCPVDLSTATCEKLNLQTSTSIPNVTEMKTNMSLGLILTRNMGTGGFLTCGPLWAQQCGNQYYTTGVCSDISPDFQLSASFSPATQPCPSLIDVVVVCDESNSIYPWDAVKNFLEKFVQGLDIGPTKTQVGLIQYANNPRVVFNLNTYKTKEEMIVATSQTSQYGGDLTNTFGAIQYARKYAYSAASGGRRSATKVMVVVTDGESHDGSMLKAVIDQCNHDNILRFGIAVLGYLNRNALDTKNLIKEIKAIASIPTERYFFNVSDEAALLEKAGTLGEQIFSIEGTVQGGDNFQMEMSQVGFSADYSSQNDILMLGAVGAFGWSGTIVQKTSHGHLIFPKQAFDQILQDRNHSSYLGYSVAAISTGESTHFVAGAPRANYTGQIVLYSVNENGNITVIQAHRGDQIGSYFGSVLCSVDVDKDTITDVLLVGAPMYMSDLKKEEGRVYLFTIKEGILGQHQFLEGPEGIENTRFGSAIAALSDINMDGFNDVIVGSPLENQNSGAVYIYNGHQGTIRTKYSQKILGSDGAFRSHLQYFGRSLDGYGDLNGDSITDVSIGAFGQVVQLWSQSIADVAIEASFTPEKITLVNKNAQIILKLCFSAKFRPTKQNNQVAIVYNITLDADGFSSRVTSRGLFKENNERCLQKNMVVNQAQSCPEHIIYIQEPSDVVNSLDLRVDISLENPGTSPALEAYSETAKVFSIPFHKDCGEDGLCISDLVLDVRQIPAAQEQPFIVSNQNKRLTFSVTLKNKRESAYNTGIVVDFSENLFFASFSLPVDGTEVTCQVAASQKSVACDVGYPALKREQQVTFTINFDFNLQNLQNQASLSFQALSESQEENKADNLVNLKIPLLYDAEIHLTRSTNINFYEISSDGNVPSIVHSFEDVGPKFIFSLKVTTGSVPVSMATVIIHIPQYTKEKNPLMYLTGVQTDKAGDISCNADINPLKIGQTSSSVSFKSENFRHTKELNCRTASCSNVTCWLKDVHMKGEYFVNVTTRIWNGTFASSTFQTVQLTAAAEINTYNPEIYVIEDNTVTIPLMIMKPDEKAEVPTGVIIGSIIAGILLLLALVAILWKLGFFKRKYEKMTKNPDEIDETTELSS
T1 sequence (P05556 21-798): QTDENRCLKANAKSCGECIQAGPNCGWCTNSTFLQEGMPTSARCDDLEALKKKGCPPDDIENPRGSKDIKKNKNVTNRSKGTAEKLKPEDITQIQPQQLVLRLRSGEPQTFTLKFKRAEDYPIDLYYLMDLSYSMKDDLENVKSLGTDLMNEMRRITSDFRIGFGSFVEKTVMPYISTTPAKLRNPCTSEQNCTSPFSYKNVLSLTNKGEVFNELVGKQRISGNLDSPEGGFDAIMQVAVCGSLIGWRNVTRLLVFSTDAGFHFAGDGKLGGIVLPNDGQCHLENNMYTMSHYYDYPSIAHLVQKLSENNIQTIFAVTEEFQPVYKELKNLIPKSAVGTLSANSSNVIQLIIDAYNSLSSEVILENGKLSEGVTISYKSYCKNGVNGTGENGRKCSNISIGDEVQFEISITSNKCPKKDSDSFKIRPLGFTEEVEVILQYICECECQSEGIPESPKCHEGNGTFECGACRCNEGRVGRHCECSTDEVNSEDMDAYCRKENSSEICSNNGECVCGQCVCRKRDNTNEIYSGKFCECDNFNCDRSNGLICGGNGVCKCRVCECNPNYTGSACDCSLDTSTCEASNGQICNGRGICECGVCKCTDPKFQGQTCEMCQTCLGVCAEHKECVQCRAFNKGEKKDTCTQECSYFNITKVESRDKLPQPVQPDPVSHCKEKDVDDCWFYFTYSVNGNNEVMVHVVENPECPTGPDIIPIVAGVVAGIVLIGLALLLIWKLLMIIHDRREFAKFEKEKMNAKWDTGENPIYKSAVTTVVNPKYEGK

Row | IC50 [µM] | SMILES
1 | 0.143 | O=C(NCc1ccccc1)NC[C@H](NC(=O)[C@@H]1C=CCN1S(=O)(=O)c1ccccc1)C(=O)O (stereo in doubt) [Compound 52, 2-[(1-Benzenesulfonyl-2,5-dihydro-1H-pyrrole-2-carbonyl)-amino]-3-(3-benzyl-ureido)-propionic acid]
2 | 0.81 | COc1ccc(CNC(=O)NC[C@H](NC(=O)[C@@H]2CCCN2S(=O)(=O)c2ccc([N+](=O)[O-])cc2)C(=O)O)cc1 [Compound 12, 3-[3-(4-Methoxy-benzyl)-ureido]-2-{[1-(4-nitro-benzenesulfonyl)-pyrrolidine-2-carbonyl]-amino}-propionic acid]
3 | 1.5 | COc1ccccc1CNC(=O)NC[C@H](NC(=O)[C@@H]1CCCN1S(=O)(=O)c1ccc([N+](=O)[O-])cc1)C(=O)O [Compound 13, 3-[3-(2-Methoxy-benzyl)-ureido]-2-{[1-(4-nitro-benzenesulfonyl)-pyrrolidine-2-carbonyl]-amino}-propionic acid]
4 | 0.79 | COc1cccc(CNC(=O)NC[C@H](NC(=O)[C@@H]2CCCN2S(=O)(=O)c2ccc([N+](=O)[O-])cc2)C(=O)O)c1 [Compound 14, 3-[3-(3-Methoxy-benzyl)-ureido]-2-{[1-(4-nitro-benzenesulfonyl)-pyrrolidine-2-carbonyl]-amino}-propionic acid]
5 | 4.1 | O=C(NCc1ccc(-c2ccccc2)cc1)NC[C@H](NC(=O)[C@@H]1CCCN1S(=O)(=O)c1ccc([N+](=O)[O-])cc1)C(=O)O [Compound 15, 3-(3-Biphenyl-4-ylmethyl-ureido)-2-{[1-(4-nitro-benzenesulfonyl)-pyrrolidine-2-carbonyl]-amino}-propionic acid]
6 | 3.6 | CCCNC(=O)NC[C@H](NC(=O)[C@@H]1CCCN1S(=O)(=O)c1ccc([N+](=O)[O-])cc1)C(=O)O [Compound 16, 2-{[1-(4-Nitro-benzenesulfonyl)-pyrrolidine-2-carbonyl]-amino}-3-(3-propyl-ureido)-propionic acid]
7 | 1.7 | CC(C)(C)NC(=O)NC[C@H](NC(=O)[C@@H]1CCCN1S(=O)(=O)c1ccc([N+](=O)[O-])cc1)C(=O)O [Compound 17, 3-(3-tert-Butyl-ureido)-2-{[1-(4-nitro-benzenesulfonyl)-pyrrolidine-2-carbonyl]-amino}-propionic acid]
8 | 0.46 | Nc1ccc(CNC(=O)NC[C@H](NC(=O)[C@@H]2CCCN2S(=O)(=O)c2ccc([N+](=O)[O-])cc2)C(=O)O)cc1 [Compound 19, 3-[3-(4-Amino-benzyl)-ureido]-2-{[1-(4-nitro-benzenesulfonyl)-pyrrolidine-2-carbonyl]-amino}-propionic acid]
9 | 0.131 | CC(=O)Nc1ccc(S(=O)(=O)N2CCC[C@H]2C(=O)N[C@@H](CNC(=O)NCc2ccccc2)C(=O)O)cc1 [Compound 21, 2-{[1-(4-Acetylamino-benzenesulfonyl)-pyrrolidine-2-carbonyl]-amino}-3-(3-benzyl-ureido)-propionic acid]
10 | 11.7 | O=C(NCc1ccccc1)NC[C@H](NC(=O)[C@@H]1CCCN1S(=O)(=O)Cc1ccccc1)C(=O)O [Compound 22, 3-(3-Benzyl-ureido)-2-[(1-phenylmethanesulfonyl-pyrrolidine-2-carbonyl)-amino]-propionic acid]
11 | 28 | O=C(NCc1ccccc1)NC[C@H](NC(=O)[C@@H]1CCCN1C(=O)OCc1ccccc1)C(=O)O [Compound 23, 2-[2-(3-Benzyl-ureido)-1-carboxy-ethylcarbarmoyl]-pyrrolidine-1-carboxylic acid benzyl ester] (Cbz-Pro-[Dap]([CO-NHBn])-OH)
12 | 0.287 | O=C(NCc1ccccc1)NC[C@H](NC(=O)[C@@H]1CCCN1S(=O)(=O)c1ccc(-c2ccccc2)cc1)C(=O)O [Compound 24, 3-(3-Benzyl-ureido)-2-{[1-(biphenyl-4-sulfonyl)-pyrrolidine-2-carbonyl]-amino}-propionic acid]
13 | 2.03 | Nc1ccc(S(=O)(=O)N2CCC[C@H]2C(=O)N[C@H](CNC(=O)NCc2ccccc2)C(=O)O)cc1 [Compound 25, 2-{[1-(4-Amino-benzenesulfonyl)-pyrrolidine-2-carbonyl]-amino}-3-(3-benzyl-ureido)-propionic acid]
14 | 1000 | O=C(NCc1ccccc1)NC[C@H](NC(=O)[C@@H]1CCCN1C(=O)c1ccccc1)C(=O)O [Compound 26, 2-[(1-Benzoyl-pyrrolidine-2-carbonyl)-amino]-3-(3-benzyl-ureido)-propionic acid] (Bz-Pro-[Dap]([CO-NHBn])-OH)

Continued, compound first:

Row | SMILES | IC50 [µM]
15 | CC(C)(C)OC(=O)NC[C@H](NC(=O)[C@@H]1CCCN1S(=O)(=O)c1ccc([N+](=O)[O-])cc1)C(=O)O [Compound 1, 3-tert-Butoxycarbonylamino-2-{[1-(4-nitro-benzenesulfonyl)-pyrrolidine-2-carbonyl]-amino}-propionic acid] | 2.62
16 | O=C(NC[C@H](NC(=O)[C@@H]1CCCN1S(=O)(=O)c1ccc([N+](=O)[O-])cc1)C(=O)O)OCc1ccccc1 [Compound 2, 3-Benzyloxycarbonylamino-2-{[1-(4-nitro-benzenesulfonyl)-pyrrolidine-2-carbonyl]-amino}-propionic acid] | 2.3
17 | O=C(NC[C@H](NC(=O)[C@@H]1CCCN1S(=O)(=O)c1ccc([N+](=O)[O-])cc1)C(=O)O)c1ccccc1 [Compound 3, 3-Benzoylamino-2-{[1-(4-nitro-benzenesulfonyl)-pyrrolidine-2-carbony]-amino}-propionic acid] | 2.31
18 | O=C(CCc1ccccc1)NC[C@H](NC(=O)[C@@H]1CCCN1S(=O)(=O)c1ccc([N+](=O)[O-])cc1)C(=O)O [Compound 4, 2-{[1-(4-Nitro-benzenesulfonyl)-pyrrolidine-2-carbonyl]-amino}-3-(3-phenyl-propionylamino)-propionic acid] | 4.75
19 | O=C(NCc1ccccc1)NC[C@H](NC(=O)[C@@H]1CCCN1S(=O)(=O)c1ccc([N+](=O)[O-])cc1)C(=O)O [Compound 5, 3-(3-Benzyl-ureido)-2-{[1-(4-nitro-benzenesulfonyl)-pyrrolidine-2-carbonyl]-amino}-propionic acid] | 0.105
20 | CC(C)(C)OC(=O)CC[C@H](NC(=O)[C@@H]1CCCN1S(=O)(=O)c1ccc([N+](=O)[O-])cc1)C(=O)O [Compound 6, 2-{[1-(4-Nitro-benzenesulfonyl)-pyrrolidine-2-carbonyl]-amino}-pentanedioic acid 5-tert-butyl ester] | 22.3
21 | O=C(NCc1ccccc1Cl)NC[C@H](NC(=O)[C@@H]1CCCN1S(=O)(=O)c1ccc([N+](=O)[O-])cc1)C(=O)O [Compound 7, 3-[3-(2-Chloro-benzyl)-ureido]-2-{[1-(4-nitro-benzenesulfonyl)-pyrrolidine-2-carbonyl]-amino}-propionic acid] | 0.985
22 | O=C(NCc1ccc(Br)cc1)NC[C@H](NC(=O)[C@@H]1CCCN1S(=O)(=O)c1ccc([N+](=O)[O-])cc1)C(=O)O [Compound 8, 3-[3-(4-Bromo-benzyl)-ureido]-2-{[1-(4-nitro-benzenesulfonyl)-pyrrolidine-2-carbonyl]-amino}-propionic acid] | 1.62
23 | O=C(NC[C@H](NC(=O)[C@@H]1CCCN1S(=O)(=O)c1ccc([N+](=O)[O-])cc1)C(=O)O)Nc1ccccc1 [Compound 9, 2-{[1-(4-Nitro-benzenesulfonyl)-pyrrolidine-2-carbonyl]-amino}-3-(3-phenyl-ureido)-propionic acid] | 3
24 | O=C(NC[C@H](NC(=O)[C@@H]1CCCN1S(=O)(=O)c1ccc([N+](=O)[O-])cc1)C(=O)O)Nc1ccc([N+](=O)[O-])cc1 [Compound 10, 2-{[1-(4-Nitro-benzenesulfonyl)-pyrrolidine-2-carbonyl]-amino}-3-[3-(4-nitro-phenyl)-ureido]-propionic acid] | 4.6
25 | O=C(NC[C@H](NC(=O)[C@@H]1CCCN1S(=O)(=O)c1ccc([N+](=O)[O-])cc1)C(=O)O)Nc1ccc(-c2ccccc2)cc1 [Compound 11, 3-(3-Biphenyl-4-yl-ureido)-2-{[1-(4-nitro-benzenesulfonyl)-pyrrolidine-2-carbonyl]-amino}-propionic acid] | 5.06
26 | CC(C)(C)OC(=O)Nc1ccc(CNC(=O)NC[C@H](NC(=O)[C@@H]2CCCN2S(=O)(=O)c2ccc([N+](=O)[O-])cc2)C(=O)O)cc1 [Compound 18, 3-[3-(4-tert-Butoxycarbonylamino-benzyl)-ureido]-2-{[1-(4-nitro-benzenesulfonyl)-pyrrolidine-2-carbonyl]-amino}-propionic acid] | 1.77
